Assay results as given in EP4752140A1, “SPIROCYCLICALKENYL OR AZAALKENYL COMPOUND, AND PHARMACEUTICAL COMPOSITION THEREOF, PREPARATION METHOD THEREFOR AND USE THEREOF” (Shanghai Meiyue Biotech Development Co., Ltd., priority 2023, dated 2025).
One block for each molecule: values may come before it.

Key:
[1] = test system: normal human serum (NHS); experiment: Complement-mediated hemolytic activity assay; type: cell-based; conditions: Erythrocyte, lysis of rabbit erythrocytes (RE) by NHS, GVB0 buffer with 10 mM Mg-EGTA, 37°C, read-out: Hemolysis IC50
Experimental: The hemolysis assay was performed with reference to the method described in Xuan Yuan et al., Haematologica. (2017) 102: 466-475. Prior to the assay, the optimal concentration of normal human serum (NHS) required to achieve 100% lysis of rabbit erythrocytes (RE) was determined by titration. In this assay, NHS (collected from healthy volunteers) was diluted in GVB^0 buffer containing 10 mM Mg-EGTA (0.1% gelatin, 5 mM Veronal, 145 mM NaCl, 0.025% NaN3, pH 7.3, Complement Technology) and incubated with various concentrations of test compounds at 37°C for 15 minutes. RE (collected from healthy Japanese white rabbits), freshly suspended in GVB^0 buffer containing 10 mM Mg-EGTA, were then added to achieve a final concentration of 1 × 10^8 cells/mL and incubated at 37°C for 30 minutes. The positive control group (100% lysis) consisted of GVB^0 buffer containing 10 mM Mg-EGTA with NHS and RE but without test compounds. The negative control group (0% lysis) consisted of GVB^0 buffer containing 10 mM Mg-EGTA with inactivated NHS (heated at 56°C for 30 minutes or 65°C for 5 minutes) and RE but without test compounds. After centrifugation of the samples at 2000 g for 5 minutes, the supernatant was collected. Absorbance at 415 nm (A415) was measured using a microplate reader (Molecular Devices, SpectraMax i3X). IC50 values were calculated by nonlinear regression from the percentage of hemolysis as a function of test compound concentration.

[2] = Single-dose PK study in rats; type: in vivo; conditions: male SD rats, oral gavage 3 mg/kg, plasma; for half-life: read-out: Half-life T1/2 (converted); for Cmax: read-out: Maximum plasma concentration Cmax
Experimental: (§1) Male SD rats (Shanghai Bikai Keyi Biotechnology Co. Ltd.) aged 6 to 9 weeks were fasted overnight. Three […] per group were administered the test compounds by oral gavage at a dosing volume of 10 mL/kg. Blood samples (0.2 mL per time point) were collected via the jugular vein into EDTA-K2 anticoagulant tubes and immediately centrifuged at 4000 rpm for 5 minutes at 4°C. The supernatants were collected. Blood samples were collected at the following time points: 15 minutes, 30 minutes, 1 hour, 2 hours, 4 hours, 7 hours, and 24 hours. The animals were continuously monitored for general condition after dosing. After completion of blood collection at all time points, the animals were euthanized. Plasma samples were analyzed by LC-MS/MS, and pharmacokinetic parameters were calculated using WinNonlin software.

[3] = test system: Alternative Pathway of the Human Serum Complement System; experiment: Inhibitory effect on the alternative pathway of the human serum complement system (Wieslab kit); type: biochemical; conditions: complement activity, OD405, LPS-coated plate
Experimental: Test compounds were evaluated starting at a concentration of 10 µM, with 3-fold serial dilutions across 8 concentration points. The final concentration of DMSO was 0.1%, and all measurements were performed in duplicate. A vial of human serum (Complement Technology, NHS) was removed from a -80°C ultra-low temperature freezer and allowed to thaw completely on ice. […] The plate was gently mixed on a microplate thermoshaker and incubated at room temperature for 15 minutes. Subsequently, 100 µL of the above mixture was carefully transferred to the pre-coated (LPS-containing) plate provided in the kit (WIESLAB® Complement System Alternative Pathway, AP330RUO). Additionally, 100 µL of Diluent AP was used as a blank control to avoid bubble formation. The plate was incubated at 37°C for 65 minutes. After incubation, the liquid in the wells was discarded, and the plate was washed with 1× wash buffer (300 µL/well) four times, with the liquid being removed as thoroughly as possible from the plate after the final wash. 100 µL of conjugate was added to each well, and the plate was incubated at room temperature (20 to 25°C) for 30 minutes, followed by repetition of the washing step. 100 µL of substrate solution was then added to each well, and the plate was incubated at room temperature (20 to 25°C) for 30 minutes in the dark. The OD405 value was read immediately, or the reaction was terminated by addition of 5 mM EDTA, and the OD405 value was read within 60 minutes. Complement activity was calculated according to the formula: % complement activity = (Sample - NC) / (PC - NC) × 100, and data analysis was performed.

[4] = Single-dose PK study in mice; conditions: mouse, in vivo, male ICR mice, oral gavage 10 mg/kg, plasma
Experimental: as §1, with “ICR mice” for “SD rats”, “Co.,” for “Co.”, “weighing approximately 25 g” for “aged 6 to 9 weeks”, “(30 µL” for “(0.2 mL”, “orbital sinus” for “jugular vein”

[5] = rat, in vivo, read-out: Area under the curve AUC0-24h
[6] = rat, read-out: Area under the curve AUC0-24h

SMILES: COc1cc(C)c2[nH]ccc2c1CN1CC[C@H](C=C(F)F)C[C@H]1c1ccc(C(=O)O)c(O)c1 [Compound 40-P1]
IC50 [1]: 0.0218 µM

SMILES: COc1cc(C)c2[nH]ccc2c1CN1CC[C@H](C=C(F)F)C[C@H]1c1ccc(C(=O)O)c(Cl)c1 [Compound 35-P1]
IC50 [1]: 0.0615 µM

SMILES: COc1cc(C)c2[nH]ccc2c1CN1CCC2(CC(=C(F)F)C2)C[C@H]1c1ccc(C(=O)O)cc1 (some centres unmarked) [Compound 1]
AUC(0-t) at 24 h [2, 5]: 8320 ng·h/mL
half-life ([2]; rat, in vivo): 11.3 h
Cmax ([2]; rat, in vivo): 720 ng/mL
IC50 [1]: 0.0862 µM
IC50 [3]: 0.0532 µM
AUC(0-t) at 24 h ([4]; read-out: Area under the curve AUC0-24h): 9230 ng·h/mL
half-life ([4]; read-out: Half-life T1/2 (converted)): 13.1 h
Cmax ([4]; read-out: Maximum plasma concentration Cmax): 1530 ng/mL

SMILES: COc1cc(C)c2[nH]ccc2c1CN1CC[C@H](C=C2CC2)C[C@H]1c1ccc(C(=O)O)cc1 [Compound 41-P1]
IC50 [1]: 0.0348 µM

SMILES: COc1cc(Cl)c2[nH]ccc2c1CN1CC[C@H](C=C(F)F)C[C@H]1c1ccc(C(=O)O)cc1 [Compound 38-P1]
IC50 [1]: 0.139 µM

SMILES: Cc1cc(C2CC2)c(CN2CC[C@H](C=C(F)F)C[C@H]2c2ccc(C(=O)O)cc2)c2cc[nH]c12 [Compound 60-P1]
IC50 [1]: 0.116 µM

SMILES: [2H]C([2H])([2H])Oc1cc(C)c2[nH]ccc2c1CN1CC[C@H](C=C(F)F)C[C@H]1c1ccc(C(=O)O)cc1 [Compound 39-P1]
AUC(0-t) at 24 h [2, 6]: 13300 ng·h/mL
half-life ([2]; rat): 9.44 h
Cmax ([2]; rat): 1280 ng/mL
IC50 [1]: 0.113 µM

SMILES: CCO[C@H]1CCN(Cc2c(OC)cc(C)c3[nH]ccc23)[C@H](c2ccc(C(=O)O)cc2)C1 [Comparative Example 1, reference compound]
Clearance CL [2]: 13.549 mL/min/kg
AUC(0-t) [2, 6]: 3660 ng·h/mL
half-life ([2]; rat): 3.38 h
Cmax ([2]; rat): 714 ng/mL

SMILES: COc1cc([C@@H]2C[C@@H](C=C(F)F)CCN2Cc2c(OC)cc(C)c3[nH]ccc23)ccc1C(=O)O [Compound 36-P1]
AUC(0-t) at 24 h [2, 5]: 4500 ng·h/mL
half-life ([2]; rat, in vivo): 8.29 h
Cmax ([2]; rat, in vivo): 667 ng/mL
IC50 [1]: 0.044 µM

SMILES: COc1cc(C)c2[nH]ccc2c1CN1CCC(C=C(F)F)C[C@H]1c1ccc(C(=O)O)cc1Cl (some centres unmarked) [Compound 34-1]
IC50 [1]: 0.0616 µM

SMILES: COc1cc(C)c2[nH]ccc2c1CN1CCC(=C(F)F)C[C@H]1c1ccc(C(=O)O)cc1 [Compound 19]
IC50 [1]: 2.79 µM

SMILES: Cc1cc(C)c2[nH]ccc2c1CN1CC[C@H](C=C(F)F)C[C@H]1c1ccc(C(=O)O)cc1 [Compound 37-P1]
IC50 [1]: 0.0207 µM

SMILES: COc1cc(C)c2[nH]ccc2c1CN1CC[C@H](C=C(F)F)C[C@H]1c1ccc(C(=O)O)cc1 [Compound 32-P1]
AUC(0-t) at 24 h [2, 6]: 17600 ng·h/mL
half-life ([2]; rat): 13.2 h
Cmax ([2]; rat): 1290 ng/mL
IC50 [1]: 0.0943 µM
IC50 [3]: 0.0473 µM

AUC(0-t) at 24 h [2, 5]: 10700 ng·h/mL
half-life ([2]; rat, in vivo): 11.2 h
Cmax ([2]; rat, in vivo): 1240 ng/mL
IC50 [3]: 0.0504 µM
SMILES: COc1cc(C)c2[nH]ccc2c1CN1CC[C@H](C=C(F)F)C[C@H]1c1ccc(C(=O)O)cc1C (single isomer, unassigned) [Compound 33-P1]
IC50 [1]: 0.0823 µM
